This note sets out measurements from patent publication US20240368177A1, “5-AMINO-6,8-DIHYDRO-1H-FURO[3,4-d]PYRROLO[3,2-b]PYRIDINE-2-CARBOXAMIDE DERIVATIVES AS MTA-COOPERATIVE INHIBITORS OF PRMT5” (BeiGene Switzerland GmbH, priority 2023, published 2024).

Assay [1] relates to HCT116-MTAP-KO. As to the kind of experiment: Cell killing in HCT116 isogenic pair (Cell Titer-Glo viability), MTAP knock-out cells. It is filed as cell-based, human. The following applies: Homo sapiens, HCT-116, 144 h, 6 days incubation, 0-10 μM, * = more than 50% viability inhibition at tested concentration without a full curve. Summed up:
(§1)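 Viability was read by CellTiter-Glo luminescence after 6 days of compound treatment (0–10 μM final, 37° C, 5% CO2), and IC50 values were fitted. The isogenic HCT116 pair, MTAP-KO clone versus mock-KO MTAP-wildtype, was grown in RPMI 1640 plus 10% FBS and seeded the day before.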
For orientation: Cellular ATP, detected with luciferase, serves as a proxy for viable cell number.

Assay [2] deals with HCT116-mock-RNA-KO. As to the kind of experiment: Cell killing in HCT116 isogenic pair (Cell Titer-Glo viability), mock knock-out cells with MTAP wildtype genotype. It is filed as cell-based, human. The following applies: Homo sapiens, HCT-116, 144 h, 6 days incubation, 0-10 μM. In short, it runs like this: as §1

Usually IC50 stands for the point on the concentration scale where inhibition reaches its midpoint. Low values mean greater potency in that assay, high ones weaker potency in that assay. Turning to `CC[C@@H](C)N(Cc1ncc(C2CC2)cc1F)C(=O)c1cc2nc(N)c3c(c2[nH]1)COC3` [Example 67, (R)-5-amino-N-(sec-butyl)-N-((5-cyclopropyl-3-fluoropyridin-2-yl)methyl)-6,8-dihydro-1H-furo[3,4-d]pyrrolo[3,2-b]pyridine-2-carboxamide], the results for the IC50 in assay [1] and in assay [2] were 4.2 nM and 453 nM, respectively.

As for `CN(C(=O)c1cc2nc(N)c3c(c2[nH]1)COC3)[C@@H]1COCc2cc(I)ccc21` [Example 84, (S)-5-amino-N-(7-iodoisochroman-4-yl)-N-methyl-6,8-dihydro-1H-furo[3,4-d]pyrrolo[3,2-b]pyridine-2-carboxamide], the figures for the IC50 in assay [1] and in assay [2] were 10 nM and 2200 nM, respectively.

On to `C[C@@H]1OC[C@@H](N(C)C(=O)c2cc3nc(N)c4c(c3[nH]2)COC4)c2ccc(Br)cc21` [Example 80, 5-amino-N-((1S,4S)-7-bromo-1-methylisochroman-4-yl)-N-methyl-6,8-dihydro-1H-furo[3,4-d]pyrrolo[3,2-b]pyridine-2-carboxamide], for which the IC50 in assay [1] was 351 nM; in assay [2] it was over 10000 nM.

With `C[C@H]1OC[C@@H](N(C)C(=O)c2cc3nc(N)c4c(c3[nH]2)COC4)c2ccc(Br)cc21` [Example 81, 5-amino-N-((1R,4S)-7-bromo-1-methylisochroman-4-yl)-N-methyl-6,8-dihydro-1H-furo[3,4-d]pyrrolo[3,2-b]pyridine-2-carboxamide], the IC50 worked out at 9.7 nM in assay [1] and 1020 nM in assay [2].

With `CN(C(=O)c1cc2nc(N)c3c(c2[nH]1)COC3)[C@@H]1COCc2cc(C(F)(F)F)ccc21` [Example 40, (S)-5-amino-N-methyl-N-(7-(trifluoromethyl)isochroman-4-yl)-6,8-dihydro-1H-furo[3,4-d]pyrrolo[3,2-b]pyridine-2-carboxamide], the IC50 in assay [1] is 13 nM; in assay [2], 2490 nM.

Regarding `CO[C@@H]1CCOC[C@H]1N(Cc1ccc(C(F)(F)F)cn1)C(=O)c1cc2nc(N)c3c(c2[nH]1)COC3` [Example 26, 5-amino-N-((3R,4R)-4-methoxytetrahydro-2H-pyran-3-yl)-N-((5-(trifluoromethyl)pyridin-2-yl)methyl)-6,8-dihydro-1H-furo[3,4-d]pyrrolo[3,2-b]pyridine-2-carboxamide], the IC50 amounted to 14 nM in assay [1] and 1870 nM in assay [2].

Turning to `CCN(C(=O)c1cc2nc(N)c3c(c2[nH]1)COC3)[C@@H]1COCc2cc(C(F)(F)F)ccc21` [Example 54, (S)-5-amino-N-ethyl-N-(7-(trifluoromethyl)isochroman-4-yl)-6,8-dihydro-1H-furo[3,4-d]pyrrolo[3,2-b]pyridine-2-carboxamide], the results for the IC50 in assay [1] and in assay [2] were 12 nM and 1360 nM, respectively.

Take `C[C@H](c1ncccn1)N(Cc1ncc(Br)cc1F)C(=O)c1cc2nc(N)c3c(c2[nH]1)COC3` [Example 41, (R)-5-amino-N-((5-bromo-3-fluoropyridin-2-yl)methyl)-N-(1-(pyrimidin-2-yl)ethyl)-6,8-dihydro-1H-furo[3,4-d]pyrrolo[3,2-b]pyridine-2-carboxamide]: the figures for the IC50 in assay [1] and in assay [2] were 6.6 nM and 586 nM, respectively.

Regarding `CCN(C(=O)c1cc2nc(N)c3c(c2[nH]1)CO[C@@H]3C)[C@@H]1COC2(CC2)c2cc(C(F)(F)F)ccc21` [Example 166, (R)-5-amino-N-ethyl-6-methyl-N—((S)-7′-(trifluoromethyl)spiro[cyclopropane-1,1′-isochroman]-4′-yl)-6,8-dihydro-1H-furo[3,4-d]pyrrolo[3,2-b]pyridine-2-carboxamide], the IC50 in assay [1] turned out to be 19 nM; in assay [2] it was 2150 nM.

Turning to `CO[C@@H]1CCOC[C@H]1N(Cc1ncc(C(F)(F)F)cc1F)C(=O)c1cc2nc(N)c3c(c2[nH]1)COC3` [Example 34, 5-amino-N-((3-fluoro-5-(trifluoromethyl)pyridin-2-yl)methyl)-N-((3R,4R)-4-methoxytetrahydro-2H-pyran-3-yl)-6,8-dihydro-1H-furo[3,4-d]pyrrolo[3,2-b]pyridine-2-carboxamide], the IC50 in assay [1] amounted to 7.4 nM; in assay [2] it was 1350 nM.

On to `CN(C(=O)c1[nH]c2c3c(c(N)nc2c1C#N)COC3)[C@@H]1COCc2cc(C(F)(F)F)ccc21` [Example 92, (S)-5-amino-3-cyano-N-methyl-N-(7-(trifluoromethyl)isochroman-4-yl)-6,8-dihydro-1H-furo[3,4-d]pyrrolo[3,2-b]pyridine-2-carboxamide], for which the IC50 in assay [1] is 49 nM; in assay [2], 2050 nM.

In the case of `Nc1nc2cc(C(=O)N(Cc3ccc(-c4c(F)cccc4F)cc3F)[C@H]3CCOc4cccnc43)[nH]c2c2c1COC2` [Example 20, (S)-5-amino-N-(3,4-dihydro-2H-pyrano[3,2-b]pyridin-4-yl)-N-((2′,3,6′-trifluoro-[1,1′-biphenyl]-4-yl)methyl)-6,8-dihydro-1H-furo[3,4-d]pyrrolo[3,2-b]pyridine-2-carboxamide], the IC50 in assay [1] turned out to be 658 nM; in assay [2] it was 4000 nM.

As for `Nc1nc2cc(C(=O)N(Cc3ccc(-c4c(F)cncc4F)cn3)Cc3c(F)cccc3F)[nH]c2c2c1COC2` [Example 30, 5-amino-N-((3′,5′-difluoro-[3,4′-bipyridin]-6-yl)methyl)-N-(2,6-difluorobenzyl)-6,8-dihydro-1H-furo[3,4-d]pyrrolo[3,2-b]pyridine-2-carboxamide], the values for the IC50 in assay [1] and in assay [2] were 0.8 nM and 22 nM, respectively.

As to `CC[C@@H](C)N(Cc1ccc(C2CCC2)cn1)C(=O)c1cc2nc(N)c3c(c2[nH]1)COC3` [Example 107, (R)-5-amino-N-(sec-butyl)-N-((5-cyclobutylpyridin-2-yl)methyl)-6,8-dihydro-1H-furo[3,4-d]pyrrolo[3,2-b]pyridine-2-carboxamide], the IC50 in assay [1] is 20 nM; in assay [2], 1090 nM.

Consider `C[C@H](c1ncccn1)N(Cc1ncc(C2CC2)cc1F)C(=O)c1cc2nc(N)c3c(c2[nH]1)COC3` [Example 52, (R)-5-amino-N-((5-cyclopropyl-3-fluoropyridin-2-yl)methyl)-N-(1-(pyrimidin-2-yl)ethyl)-6,8-dihydro-1H-furo[3,4-d]pyrrolo[3,2-b]pyridine-2-carboxamide], for which the values for the IC50 in assay [1] and in assay [2] were 4.6 nM and 419 nM, respectively.

As to `CCN(C(=O)c1cc2nc(N)c3c(c2[nH]1)COC3)[C@H](C)c1ccc(C2CC2)cn1` [Example 112, (R)-5-amino-N-(1-(5-cyclopropylpyridin-2-yl)ethyl)-N-ethyl-6,8-dihydro-1H-furo[3,4-d]pyrrolo[3,2-b]pyridine-2-carboxamide], the IC50 in assay [1] is 59 nM; in assay [2], over 10000 nM.

For `CN(C(=O)c1cc2nc(N)c3c(c2[nH]1)COC3)[C@H]1COCc2cc(C(F)(F)F)cnc21` [Example 163, (R)-5-amino-N-methyl-N-(3-(trifluoromethyl)-7,8-dihydro-5H-pyrano[4,3-b]pyridin-8-yl)-6,8-dihydro-1H-furo[3,4-d]pyrrolo[3,2-b]pyridine-2-carboxamide], the concentration for half-maximal inhibition (IC50) in assay [1] and in assay [2] was over 10000 nM throughout.

`C[C@@H](c1ccc(C2CC2)cn1)N(C(=O)c1cc2nc(N)c3c(c2[nH]1)COC3)C1CCC1` [Example 160, (S)-5-amino-N-cyclobutyl-N-(1-(5-cyclopropylpyridin-2-yl)ethyl)-6,8-dihydro-1H-furo[3,4-d]pyrrolo[3,2-b]pyridine-2-carboxamide]: the IC50 in assay [1] was 598 nM; in assay [2], over 10000 nM.
